The values below come from patent US20240199555A1, “APPLICATIONS OF BIASED LIGANDS OF THE SEROTONIN 5-HT7 RECEPTOR FOR THE TREATMENT OF PAIN, MULTIPLE SCLEROSIS AND THE CONTROL OF THERMOREGULATION” (Centre National de la Recherche Scientifique, priority 2021, published 2024).

Assay [1] deals with Sprague-Dawley male rats. Put plainly: Formalin induced inflammatory pain model. The note with it: single s.c., Serodolin 10 mg/kg, MOA51 1 mg/kg, morphine. The format is in vivo. On the procedure: FIG. 18: Effect of a single administration of Serodolin (AIC01) or MOA51 in the formalin test in rats. Effect of a single subcutaneous administration of Serodolin (AIC01) or MOA51 in the formalin test in rats. In this test, Sprague-Dawley male rats received unilateral injection of a 2.5% formalin solution (50 μl) into the plantar aspect of the hindpaw on testing day (i.e. D0). Control group received Vehicle (20% DMSO/5% Tween 80/NaCl). Serodolin was subcutaneously (sc) administrated at 10 mg/kg and MOA51 at 1 mg/kg. Positive control animals were treated with morphine (3 mg/kg, sc). Paw licking time was measured. Results are expressed as mean±s.e.m. Percentage are expressed as decreased as compared to the vehicle-treated group and represented as figure (B). ***: p<0.001 as compared to the vehicle-treated group, Bonferroni's test after significant Two-way Repeated Measures ANOVA. NS: Non-significant.
Sprague-Dawley male rats (n=10 rats per group) received unilateral injection of a 2.5% formalin solution (50 μl) into the plantar aspect of the hindpaw on testing day (i.e. D0). Experience was separated into 4 groups of animals. Formalin animals+vehicle-treated group; […]—Formalin animals+Sponsor's Serodolin (10 mg/kg), s.c.—Formalin animals+Sponsor's MOA51 (1 mg/kg), s.c.—Formalin animals+internal validator-treated group (Morphine at 4 mg/Kg, s.c.). Single subcutaneous administration of the Vehicle and Sponsor's Compound 30 min (or other timing depending on Sponsor's design) before formalin injection on testing day (i.e. D0)/Subcutaneous administration of Morphine 30 min before formalin injection on testing day (i.e. D0). Hindpaw licking time recorded in consecutive 5 minutes periods from 0 to 5 minutes (early phase) and 17 to 27 minutes (late phase) after formalin injection.
We evaluated the effect of Serodolin as well as MOA51 in rats in the formalin test, an acute and tonic pain model based on the use of a chemical stimulus. Subcutaneous injection of formalin into the right hindpaw produces a biphasic painful response of increasing and decreasing intensity for about 30 minutes after the injection. […] Although not significant, Serodolin, MOA51 and morphine have an inhibitory effect (−40%, −35% and −57% respectively) during the early phase.

The test system of assay [2] is HEK-293 mock cells. Put plainly: Control in mock-transfected HEK-293 cells (cAMP, ERK phosphorylation). Type of assay: cell-based, human. On the procedure:
ERK phosphorylation was monitored by western blotting after treatment of cells with 10 μM of ligands at different times ranging from 2 to 60 minutes. […] The kinetics of ERK phosphorylation elicited by 5-CT, Serodolin and MOA-51 were very similar: activation was fast and transient, and reached a pick between 2 and 7 minutes after drug exposure. However, ERK phosphorylation-induced by Serodolin and MOA-51 was more protracted compared to 5-CT, the reference agonist.

Assay [3] concerns C57BL/6 mice. Put plainly: Spared Nerve Injury (SNI) neuropathic pain model, Von Frey. The note with it: s.c.
Description: Pregabalin, vehicle or compounds solutions are subcutaneously administrated for 8 consecutive days. • (A) Mechanical response threshold after the first administration (D+10). […] Positive control animals were treated with Pregabalin (5 mg/kg, sc). Statistical differences are indicated compared to vehicle group (Two-way RM ANOVA followed by Bonferroni post-hoc test: ***p<0.001, ** p<0.01, * p<0.05). […] Positive control animals were treated with Pregabalin (5 mg/kg, sc). Statistical differences are indicated compared to vehicle group (Two-way RM ANOVA followed by Bonferroni post-hoc test: ***p<0.001, ** p<0.01, * p<0.05). […] (Two-way RM ANOVA followed by Bonferroni post-hoc test: ***p<0.001, ** p<0.01, * p<0.05)
MOA51 and Serodolin (AIC01) compounds were diluted in NDT solution (NaCl 0.9%—DMSO 20%—Tween80 5%). […] AIC01 was resuspended at 0.5 mg/mL and administrated at a ratio of 100 μl per 10 g (dose of 5 mg/kg).
Experiment starts with 8 weeks old male C57B16J mice (from Charles River). Study was performed on 40 mice (2 mice were excluded during the study due to health guidelines) divided in 4 randomized groups. • Group A: s.c. injection at 5 mg/kg of pregabalin. • Group B: s.c. injection at 0.5 mg/kg of MOA51. • Group C: s.c. injection at 5 mg/kg of Serodolin (AIC01). • Group D: s.c. injection of NDT solution (referred as Vehicle hereafter).
Compounds solutions, pregabalin and vehicle were subcutaneously administrated (100 μl/10 g) for 9 consecutive days, starting 10 days after surgery. Ligature and transection of the common peroneal and tibial distal branches of the sciatic nerve was made leaving the sural branch intact. 7 days post-surgery, a decrease of threshold response to Von Frey filaments of ipsilateral hind-paw was observed corresponding to neuropathic pain apparition (mechanical allodynia). Mechanical threshold response of mice were measured with calibrated Von Frey filaments using the up/down method. Experimenter was blind to mice treatment. Measures are performed as follow: one baseline measure before surgery, one measure at D+10, D+12, D+14, D+16 and D+18 before drug's administration, and 1 h, 2 h post-drug administration. A supplementary measure 4 h post-drug administration was performed at D+10 and D+18.
Two-way RM ANOVA (followed by Bonferroni post-hoc test) was used to analysed time course response at D+10 and D+18. Area under the curve was determined with the 1 h and 2 h post-drug administration measures to investigated tolerance of repeated administration of compounds
Assay [4] deals with mouse. Put plainly: Effect on body temperature. Type of assay: in vivo. An excerpt: FIG. 13: Evaluation of the effect of Serodolin on body temperature.
FIG. 17: Evaluation of the effect of MOA51 on body temperature. Results expressed in ° C.
The time course of the effect of Serodolin on the body temperature has been evaluated in the mouse following intravenous administration.

Assay [5] relates to mice. Put plainly: Acetic acid-induced writhing test. Type of assay: in vivo. On the procedure: (§1) FIG. 9: Analgesic effect of Serodolin in the acetic acid-induced writhing test. In this test, nociception was induced by an intraperitoneally injection (ip) of 0.1 ml/10 g acid acetic solution (10 ml/kg) in peripheral origin. Serodolin at increasing dosage was administrated by oral (po), intravenous (iv) or subcutaneous (sc) route before acid acetic injection (upper panel). Positive control animals were pretreated morphine (3 mg/kg, sc) 10 minutes before acetic acid. Five minutes after i.p. injection of acetic acid the number of writhing was recorded for 10 minutes. Data mean±SEM of values obtained from a representative experiment (n=10 animals/group). ****p<0.0001 ***p<0.001 **p<0.01 *p<0.05 as compared with the control group (Vh).
as §1, with “16:” for “9:”, “MOA51” for “Serodolin”, “i.p.injection” for “i.p. injection”, “animals/group).” for “animals/group). ****p<0.0001 ***p<0.001”, “**p<0.01” for “**p<0.01 *p<0.05”
Writhing tests: Mice (25-35 g). Groups of mice (n=10) received by oral, subcutaneous or intravenous route Serodolin at different doses (0.1-10 mg/kg) one hour before intraperitoneally injection of 1% acetic acid in a volume of 10 ml/kg. Control group received vehicle (10 ml/kg, solution of 20% DMSO and 5% tween 80). The test was carried out 5 minutes later after acid acetic injection. The characteristic writhing responses have been observed individually and counted for 10 minutes.
Analgesic activity was first evaluated using the acetic acid abdominal constriction test (writhing test), a chemical model of visceral pain. We evaluated the dose-response effect of Serodolin following single oral, intravenous and subcutaneous administration of the compound one hour before injection of acetic acid.
Analgesic activity was evaluated using the acetic acid abdominal constriction test (writhing test), a chemical model of visceral pain. We evaluated the dose-response effect of MOA51 following single oral, intravenous and subcutaneous administration of the compound one hour before injection of acetic acid. MOA51 administered by the oral route induced statistically significant dose-dependent decreases in the number of writhings at and above the dose of 1 mg/kg. By the intravenous route, MOA51 induced dose-dependent decreases in the number of writhings at and above the dose of 0.1 mg/kg.
(In writhing tests, fewer writhes than in controls are read as antinociception.)

`O=C(c1ccc(F)cc1)C1CCN(Cn2c(=O)[nH]c3ccccc32)CC1` [MOA51]: in assay [1] (0 to 5 minutes, not significant), the “inhibitory effect on paw licking, early phase” value is recorded as −35%. Moreover, the “inhibition of licking, late phase” value in assay [1] (17 to 27 minutes) was −78%. In addition, the “ERK phosphorylation in HEK-293 mock cells” value in assay [2] was “neither Serodolin, nor MOA-51 were able to induce ERK phosphorylation”. Besides, the “tolerance after repetitive administration (AUC)” value in assay [3] (9 consecutive days) is “didn't present any tolerance effect after repetitive administration”. Besides, the “mechanical response threshold vs vehicle” value in assay [3] (first (D+10) and last (D+18) administration, 1 h and 2 h) was “significant increase in the mechanical threshold response”. The “decrease in body temperature, Emax” value in assay [4] (0.1 mg/kg, at 30 min, not statistically significant) is −2.3 °C; in assay [4] (0.3 mg/kg, at 30 min) it was −5.4 °C; in assay [4] (1 mg/kg, at 180 min) it was −7.2 °C. In assay [5] (10 mg/kg, intravenous), the “writhings at the top dose, intravenous route” value is given as “no further acetic acid-induced writhings were observed”. For the same compound, the “dose giving decrease in number of writhings, intravenous route” value in assay [5] (intravenous, one hour before acetic acid) is on record as at least 0.1 mg/kg. In addition, the “dose giving significant decrease in number of writhings, oral route” value in assay [5] (oral, one hour before acetic acid) is given as at least 1 mg/kg. Also, the “dose giving significant decrease in number of writhings, subcutaneous route” value in assay [5] (s.c., one hour before acetic acid) is given as at least 1 mg/kg. The “writhings at the top dose, subcutaneous route” value in assay [5] (top dose, subcutaneous) is “absence of acetic acid-induced writhings”.
